# Assay results published in US6491894B1, “NGR receptor and methods of identifying tumor homing molecules that home to angiogenic vasculature using same” (The Burnham Institute, priority 1998, dated 2002).
# Where no end group is shown, it is not given here.
# Legend:
# CD13/APN [1] = target: T1, CD13/APN (Homo sapiens, UniProt P15144); assay: Affinity chromatography of cell extracts on immobilized peptide; assay type: binding
# T1 construct: Experiments were performed using HL-60 cell extracts because they are known to express CD13/APN; endogenous in cells; host or cells: HL-60 cells (extract)
# T1 sequence (P15144 whole entry): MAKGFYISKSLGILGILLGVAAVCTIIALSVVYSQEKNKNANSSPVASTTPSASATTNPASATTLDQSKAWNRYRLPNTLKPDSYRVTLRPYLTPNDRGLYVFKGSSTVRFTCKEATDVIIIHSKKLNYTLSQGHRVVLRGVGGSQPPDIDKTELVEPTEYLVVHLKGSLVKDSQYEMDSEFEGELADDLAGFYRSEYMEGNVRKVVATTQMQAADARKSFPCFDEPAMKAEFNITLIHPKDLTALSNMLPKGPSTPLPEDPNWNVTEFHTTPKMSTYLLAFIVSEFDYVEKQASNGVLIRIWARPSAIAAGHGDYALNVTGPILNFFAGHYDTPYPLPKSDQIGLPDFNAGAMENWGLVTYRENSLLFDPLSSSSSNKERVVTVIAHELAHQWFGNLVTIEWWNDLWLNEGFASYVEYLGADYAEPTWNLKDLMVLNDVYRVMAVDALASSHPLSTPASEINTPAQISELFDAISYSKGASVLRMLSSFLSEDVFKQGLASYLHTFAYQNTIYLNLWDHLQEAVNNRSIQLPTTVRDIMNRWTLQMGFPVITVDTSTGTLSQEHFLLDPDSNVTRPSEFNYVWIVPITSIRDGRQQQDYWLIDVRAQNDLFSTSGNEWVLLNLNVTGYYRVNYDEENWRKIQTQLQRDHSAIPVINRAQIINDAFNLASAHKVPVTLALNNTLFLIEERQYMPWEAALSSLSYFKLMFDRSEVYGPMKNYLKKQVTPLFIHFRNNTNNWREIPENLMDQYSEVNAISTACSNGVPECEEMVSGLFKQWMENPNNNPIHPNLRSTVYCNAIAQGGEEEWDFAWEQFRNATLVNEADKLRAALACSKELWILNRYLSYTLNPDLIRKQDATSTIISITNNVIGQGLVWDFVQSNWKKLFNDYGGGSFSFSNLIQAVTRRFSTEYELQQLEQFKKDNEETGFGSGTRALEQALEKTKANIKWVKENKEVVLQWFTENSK
# Experimental: To further characterize the interaction of CD13/APN with the NGR peptide, affinity chromatography on the CNGRC peptide was performed. The column was prepared by coupling the CNGRC peptide to SEPHAROSE (Pharmacia; Piscataway N.J.). Elution was effected with soluble CNGRC peptide. […] Extracts of Molt-4 and MDA-MB-435 cells transfected with CD13/APN were also characterized by using affinity chromatography, with extracts of the mock transfected counterparts used as negative controls.
# The fractions were also analyzed for CD13 enzymatic activity using AlapNA as the substrate.
# CD13 = target: T2, CD13 (Gallus gallus, UniProt O57579); assay: bFGF-induced angiogenesis in chicken chorioallantoic membrane (CAM); assay type: in vivo; details: topical, 3 days
# T2 construct: CD13 is expressed in CAM angiogenic vasculature; from tissue; host or cells: chorioallantoic membrane of 10-day chicken embryos
# T2 sequence (O57579 1-972): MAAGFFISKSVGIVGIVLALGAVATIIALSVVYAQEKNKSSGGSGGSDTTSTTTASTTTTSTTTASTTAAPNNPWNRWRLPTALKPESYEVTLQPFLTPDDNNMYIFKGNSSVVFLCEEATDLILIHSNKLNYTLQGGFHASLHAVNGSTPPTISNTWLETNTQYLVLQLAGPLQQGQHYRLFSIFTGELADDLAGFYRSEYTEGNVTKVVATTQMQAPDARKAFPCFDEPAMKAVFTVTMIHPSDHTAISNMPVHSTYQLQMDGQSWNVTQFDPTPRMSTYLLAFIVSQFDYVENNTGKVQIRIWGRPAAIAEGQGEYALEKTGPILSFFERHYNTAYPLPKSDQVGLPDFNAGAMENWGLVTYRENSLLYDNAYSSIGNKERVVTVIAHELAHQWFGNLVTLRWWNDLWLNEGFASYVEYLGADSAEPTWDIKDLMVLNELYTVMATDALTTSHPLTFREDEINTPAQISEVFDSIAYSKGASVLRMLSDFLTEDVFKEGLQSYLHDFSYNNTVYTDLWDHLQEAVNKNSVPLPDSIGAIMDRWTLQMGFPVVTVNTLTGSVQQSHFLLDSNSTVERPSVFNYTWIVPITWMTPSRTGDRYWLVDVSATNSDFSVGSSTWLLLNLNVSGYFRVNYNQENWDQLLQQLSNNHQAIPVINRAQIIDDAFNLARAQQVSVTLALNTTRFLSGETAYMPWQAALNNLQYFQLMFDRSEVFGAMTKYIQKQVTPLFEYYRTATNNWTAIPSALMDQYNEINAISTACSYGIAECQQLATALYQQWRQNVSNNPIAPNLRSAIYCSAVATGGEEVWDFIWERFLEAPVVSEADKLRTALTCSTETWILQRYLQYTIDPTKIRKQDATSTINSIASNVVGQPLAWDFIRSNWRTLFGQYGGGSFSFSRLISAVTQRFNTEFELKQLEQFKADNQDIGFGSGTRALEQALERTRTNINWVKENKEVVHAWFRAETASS
# Description: Various treatments were applied topically, and, after 3 days, the filters and surrounding CAMs were resected and fixed in formalin.
# Each bar represents the mean number of vessels and standard errors from 8 CAMs on each group.
# CD13/aminopeptidase N = CD13/aminopeptidase N (Homo sapiens, UniProt P15144); details: cited from earlier work
# Sequence of CD13/aminopeptidase N (P15144 whole entry): as the sequence (P15144 whole entry) above
# [2] = system: MDA-MB-435 breast carcinoma; assay: Tumor therapy of mice bearing MDA-MB-435 breast carcinoma; assay type: in vivo, mouse
# Experimental: Female 2-month old Balb c nu/nu mice (Harlan Sprague Dawley; San Diego Calif.) were used for these studies and were cared for according to the Burnham Institute animal facility guidelines. […] Tumors were allowed to grow to a size of about 1 cm^3 (about 5% of the mouse's body weight) before starting the treatment experiments, except for the toxicity experiments as discussed below.
# Weekly doxorubicin/peptide conjugate or control treatments (5 μg/mouse/week of doxorubicin-equivalent) were administered intravenously. In some experiments, as indicated, a dose of 30 μg/mouse was administered every 3 weeks. […] As an additional control, in some experiments the tumor homing peptide was mixed with doxorubicin, without linking, and the mixture was administered to tumor bearing mice.
# Mice were anesthetized with a tribromoethanol-based anesthetic mixture (AVERTIN; Papaioannou and Fox, Lab. Anim. 43:189-192 (1993)) before each treatment. Anesthetization facilitated the tail vein injections (final volume, 200 μl) and allowed precise serial three dimensional tumor size measurements. Tumor volume calculations were based on the equation for the volume of an ovaloid: V=4/3(nabc), where a, b, and c are ½ of the measured diameters in each of the three dimensions.
# Briefly, mice with size-matched tumors (˜1000 mm^3) were randomized into four treatment groups (six animals per group): vehicle only, free doxorubicin, doxorubicin-control peptide, and doxorubicin-CNGRC (SEQ ID NO:8). Mice were treated at 5 μg/mouse/week of doxorubicin-equivalent, and the difference in tumor volumes between day 1 and day 28 determined (FIG. 11A).
# [3] = system: MDA-MB-435 human breast carcinoma cells; details: for cell killing when agents not removed: after 24 hr
# Experimental: (SEQ ID NO:19; control) conjugate (0.1 to 10 μg/well of doxorubicin-equivalent) for either 30 min or overnight. Following incubation, the agents were removed by extensive washing with PBS, then fresh medium added and incubation was continued.
# [4] = system: MDA-MB-435 breast carcinoma; assay: Tumor therapy of mice bearing MDA-MB-435 breast carcinoma; assay type: in vivo; details: 5 μg/mouse/week doxorubicin-equivalent
# CD13/APN [5] = target: T1, CD13/APN; assay: Aminopeptidase enzymatic activity of immuno-isolated CD13 (Ala-pNA or Leu-pNA); assay type: biochemical; details: Kaposi's sarcoma tumor cell extracts
# Experimental: Given that the NGR sequence closely resembles a reverse RGD sequence, NGR-containing phage were tested to determine whether they would bind to CD13/aminopeptidase (CD13/APN). Kaposi's sarcoma tumor cell octylglucoside extracts were used as a source of CD13/APN. Aminopeptidase enzymatic activity was measured in these extracts utilizing Ala-pNA or Leu-pNA as substrates by monitoring the absorbance of the samples at 405 nm (Look et al., supra (1989); Taylor, supra (1993); Amoscato et al., supra (1989), each of which is incorporated herein by reference).
# The CD13 antibody alone had no aminopeptidase activity.
# [6] = system: MDA-MB-435 derived tumors; assay: In vivo targeting of phage to breast carcinoma xenografts (phage recovery); design: species or system mouse; inhibition of CGSLVRC phage tumor homing by soluble peptide: dose or concentration left out as unconfirmed; details: for reduction of the amount of phage in the tumor by coinjection of free peptide: 500 μg free peptide coinjected with RGD-4C phage; for inhibition of tumor homing of CNGRCVSGCAGRC (NGR) phage by co-injected soluble peptide: breast carcinoma xenografts; for inhibition of tumor homing of RGD-4C phage by co-injected soluble peptide: increasing amounts of peptide
# Experimental: When the tumors attained a diameter of about 1 cm, phage expressing a specific RGD-containing peptide were administered to the tumor bearing mouse. Similar results to those discussed below also were obtained with nude mice bearing tumors formed by implantation of human melanoma C8161 cells or by implantation of mouse B16 melanoma cells.
# 1×10^9 phage expressing the RGD-containing peptide, RGD-4C ([…]; SEQ ID NO:1; see, Koivunen et al., supra, 1995) or control (insertless) phage were injected intravenously (iv) into the mice and allowed to circulate for 4 min. The mice then were snap frozen or perfused through the heart while under anesthesia, and various organs, including tumor, brain and kidney, were removed and the phage present in the organs was quantitated (see U.S. Pat. No. 5,622,699; Pasqualini and Ruoslahti, supra, 1996).
# Phage displaying tumor homing peptides were recovered from breast carcinoma xenografts. […] The mean number of phage recovered from the tumor or control tissue (brain) and the standard error of the mean (SEM) from triplicate platings are shown in FIG. 1.
# An insertless phage with a different selective marker (ampicillin instead of tetracycline) was co-injected with the NGR phage at the same input to assess specificity within the same tumor-bearing animal. The ratios were calculated using the number of co-injected control ampicillin-resistant phage recovered from the same tissues. The phage were quantitated from triplicate platings on tetracycline (the homing phage) or ampicillin (control phage) selective plates. Various additional control phage were injected separately into tumor-bearing mice. These controls included: fd-tet phage without insert; unselected phage library mixtures; phage selected and shown to home to other normal vascular beds; and phage displaying peptides that were unrelated to NGR. The RGD-4C ([…]; SEQ ID NO:1) phage served as a positive control.
# human αv-integrins = details: cited from earlier work
# B16B15b mouse melanoma = assay: In vivo panning against a melanoma tumor; details: 89 cloned phage recovered from B16B15b tumors, three rounds
# Experimental: Mice bearing a melanoma were produced by implantation of B16B15b mouse melanoma cells, which produce highly vascularized tumors. B16B15b mouse melanoma cells were injected subcutaneously into the mammary fat pad of nude mice (2 months old) and tumors were allowed to grow until the diameter was about 1 cm. In vivo panning was performed as disclosed above. Approximately 1×10^12 transducing units of phage expressing the CX5C (SEQ ID NO:9), CX6C (SEQ ID NO:10) or CX7C (SEQ ID NO:11) library were injected, iv, and allowed to circulate for 4 min. Mice then were snap frozen in liquid nitrogen or perfused through the heart while under anesthesia, tumor tissue and brain (control organ) were removed, and phage were isolated as described above. Three rounds of in vivo panning were performed.
# The amino acid sequences were determined for the inserts in 89 cloned phage recovered from the B16B15b tumors. The peptides expressed by these phage were represented by two predominant sequences, […] (SEQ ID NO:4; 52% of the clones sequenced) and WGTGLC (SEQ ID NO:18; 25% of the clones; see Table 2).
# breast tumor = assay: Viability of tumor cells obtained from tumors of treated mice; assay type: in vivo, mouse; details: 30 μg equivalent iv, tumors removed five days after treatment
# Experimental: In addition, the viability of tumor cells obtained from tumors of mice treated with a tumor homing peptide/doxorubicin conjugate was compared to that of tumors from mice treated with free doxorubicin. In these experiments, breast tumor bearing mice were size matched with regard to the tumors, then treated intravenously with 30 μg equivalent of doxorubicin/RGD-4C ([…]; SEQ ID NO:1) or of free doxorubicin. Five days after treatment, the mice were euthanized and the tumors were removed. The tumor pairs were weighed and ground and the cell suspensions were plated (2 g tumor tissue per 150 mm plate).
# Cell numbers were determined at 24 hours and 7 days after plating. Viability of tumor cells from the tumors of mice receiving the doxorubicin/RGD-4C ([…]; SEQ ID NO:1) conjugate was about 3 fold less than cells from tumors of mice treated with the free doxorubicin.
# [7] = Acute toxicity in mice bearing extremely large tumors; details: 200 μg/mouse, tumors about 25% of body weight
# [8] = 5 μg/mouse/week doxorubicin-equivalent iv
compound,measurement,setting,value
O=c1[nH]cc(F)c(=O)[nH]1 [CARAC],CD13/APN obtained by affinity chromatography on immobilized peptide,CD13/APN [1],yielded no CD13/APN
same,elution of CD13/APN from the CNGRC column by soluble peptide,"CD13/APN [1]; Molt-4/CD13, MDA-MB-435/CD13 or HL-60 cell extracts",did not elute any activity
CCCCC[C@H](CC(=O)NO)C(=O)N[C@H](C(=O)N1CCC[C@H]1CO)C(C)C [actinonin],effect on bFGF-induced angiogenesis in CAM,CD13,suppress bFGF-induced angiogenesis
same,block of cell-surface CD13/aminopeptidase N enzymatic activity,CD13/aminopeptidase N,potently blocked
"COc1cccc2c1C(=O)c1c(O)c3c(c(O)c1C2=O)C[C@@](O)(C(=O)CO)C[C@@H]3O[C@H]1C[C@H](N)[C@H](O)[C@H](C)O1 [doxorubicin, reference compound]",effect on tumor growth,[2]; relative to vehicle alone,essentially no effect on tumor growth
same,cell killing when agents not removed,[3],cells were killed
same,gross examination of tumors (skin ulceration and tumor necrosis),[4],no such signs were observed
c1cnc2c(c1)ccc1cccnc12 [o-phenanthroline],inhibition of aminopeptidase activity captured by CD13 antibody,CD13/APN [5],inhibited the activity
same,block of cell-surface CD13/aminopeptidase N enzymatic activity,CD13/aminopeptidase N,potently blocked
ACDCRGDCFCG,reduction of the amount of phage in the tumor by coinjection of free peptide,[6],about tenfold
CDCRGDCFC [RGD-4C],inhibition of tumor homing of CNGRCVSGCAGRC (NGR) phage by co-injected soluble peptide,[6],partially inhibited
same,inhibition of tumor homing of RGD-4C phage by co-injected soluble peptide,[6],readily inhibited
same,"potency in inhibiting NGR phage tumor homing, less potent than the CNGRC peptide","[6]; mouse, in vivo",5-10 times
same,binding to αv-integrins,human αv-integrins,binds to human αv-integrins
CGSLVRC,inhibition of CGSLVRC phage tumor homing by soluble peptide,[6],inhibition of tumor homing
CLSGSLSC,share of the clones sequenced,B16B15b mouse melanoma,52%
"GACVFSIAHECGA (not fully specified (bridges); also: cyclic, ring type not given here) [unrelated cyclic control peptide, reference compound]",inhibition of tumor homing of CNGRCVSGCAGRC (NGR) phage by co-injected soluble peptide,[6],had no effect
same,inhibition of tumor homing of RGD-4C phage by co-injected soluble peptide,[6],had no effect
GRGESP [reference compound],reduction of the amount of phage in the tumor by coinjection of free peptide,[6],essentially had no effect
WGTGLC,share of the clones sequenced,B16B15b mouse melanoma,25%
doxorubicin/RGD-4C: doxorubicin conjugated to peptide CDCRGDCFC (SEQ ID NO:1) (cysteine pairing not given here; also: doxorubicin conjugate),"viability of tumor cells, less than cells from tumors of mice treated with free doxorubicin",breast tumor,about 3 fold
same,pulmonary metastasis,[2]; [8],a lower incidence of pulmonary metastasis and fewer metastatic lesions
same,spread to regional lymph nodes,[2]; [8],less spread to regional lymph nodes
same,survival,[2]; [8],survived beyond the time when the doxorubicin control and conjugate control mice had died
same,tumor size versus doxorubicin control,[2]; [8],significantly smaller tumors
same,time alive after control mice had died,"[2]; dose escalation, 30 μg/mouse every three weeks for three cycles",more than 6 months
same,histopathological analysis of tumor vasculature,"[2]; mouse, in vivo",pronounced destruction of the vasculature
same,cell death after 30 min exposure,"[3]; 0.1 to 10 μg/well doxorubicin-equivalent, agents removed after 30 min, survival at 24 hours",cell death was present
same,cell killing when agents not removed,[3],cells were killed
same,gross examination of tumors (skin ulceration and tumor necrosis),[4],marked skin ulceration and tumor necrosis
same,survival after acute dose,[7],survived for longer than one week
